From paper PMC8286840, “Identifying SARS-CoV-2 antiviral compounds by screening for small molecule inhibitors of Nsp3 papain-like protease” (Biochemical Journal, 2021)
Counter-ions that a name gives are not always drawn. Like-named read-outs stand apart in the source and are kept apart here.

Assays:
[1] = biological target: T1, SARS-CoV-2 PLpro (nsp3 1564–1878) (Severe acute respiratory syndrome coronavirus 2, UniProt P0DTD1); test: biochemical; set-up: FRET-quenched peptide (Pro3) cleavage by PLpro, 10 min pre-incubation, slope over 20 min, normalised to no-compound control; settings: low concentration screen, read-out: % of control remaining
Procedure: The plates were organized with columns 3–22 containing the compounds; the remaining columns were used for reaction controls including substrate only and substrate with enzyme but no compound (Figure 3Aii). The PLpro enzyme was pre-incubated with the compounds for 10 min, and then the reaction was initiated by the addition of substrate. […] We incubated the inhibitors with PLpro before the enzymatic reaction so that the slow-binding inhibitors will not be missed out [21]. […] Fluorescence was read on a Spark multimode microplate reader (Tecan) with an excitation wavelength at 330 nm and emission wavelength at 420 nm. […] An amount of 5 µl of the enzyme was pre-incubated with compounds for 10 min before the addition of 15 µl substrate. Fluorescence was monitored at 2 min for 20 min with 3 min intervals giving a total of seven readings.

[2] = biological target: T1, SARS-CoV-2 PLpro (nsp3 1564–1878); test: biochemical; set-up: FRET-quenched peptide (Pro3) cleavage by PLpro, 10 min pre-incubation, slope over 20 min, normalised to no-compound control; settings: high concentration screen, read-out: % of control remaining

COc1ccc(S(=O)(=O)Nc2cc(Cl)cc(Cl)c2OC)cc1N1CCNCC1 [N-(3,5-dichloro-2-methoxyphenyl)-4-methoxy-3-(piperazin-1-yl)benzenesulfonamide hydrochloride]
remaining activity at 1.25 µM ([1]; Well no.=5561): 97.1% | remaining activity at 3.75 µM ([2]; Well no.=5561): 103%

Nc1ccc(N2C(=O)c3ccccc3C2=O)c(Cl)c1 [N-(4-Amino-2-chlorophenyl)phthalimide]
remaining activity at 1.25 µM ([1]; Well no.=344): 95.3% | remaining activity at 3.75 µM ([2]; Well no.=344): 96.5%

NCCCCNS(=O)(=O)c1ccc2c(Cl)cccc2c1 [N-(4-Aminobutyl)-5-chloro-2-naphthalenesulfonamide hydrochloride]
remaining activity at 1.25 µM ([1]; Well no.=55): 104% | remaining activity at 3.75 µM ([2]; Well no.=55): 106%

COc1ccc2c(c1)c(CC(=O)Nc1ccc(NC(C)=O)cc1)c(C)n2C(=O)c1ccc(Cl)cc1 [N-(4-acetamidophenyl)indomethacinamide]
remaining activity at 1.25 µM ([1]; Well no.=343): 98.3% | remaining activity at 3.75 µM ([2]; Well no.=343): 97.9%

CC(=O)NCCCCCN [N-(5-Aminopentyl)acetamide]
remaining activity at 1.25 µM ([1]; Well no.=6155): 98.4% | remaining activity at 3.75 µM ([2]; Well no.=6155): 89.4%

COc1ccc(Cl)cc1NC(=O)Nc1cc(C)nc2ccccc12 [N-(5-Chloro-2-methoxyphenyl)-N'-(2-methyl-4-quinolinyl)urea]
remaining activity at 1.25 µM ([1]; Well no.=2626): 100% | remaining activity at 3.75 µM ([2]; Well no.=2626): 101%

C#CCNCc1cc2cc(OCc3ccccc3)ccc2[nH]1 [N-((5-(benzyloxy)-1H-indol-2-yl)methyl)prop-2-yn-1-amine]
remaining activity at 1.25 µM ([1]; Well no.=5630): 95.4% | remaining activity at 3.75 µM ([2]; Well no.=5630): 96.5%

CC(=O)NCCc1c[nH]c2ccc(O)cc12 [N-Acetyl-5-hydroxytryptamine]
remaining activity at 1.25 µM ([1]; Well no.=201): 102% | remaining activity at 3.75 µM ([2]; Well no.=201): 103%

CC(=O)N[C@@H](CS)C(=O)O [N-Acetyl-Cysteine]
remaining activity at 1.25 µM ([1]; Well no.=4036): 97.8% | remaining activity at 3.75 µM ([2]; Well no.=4036): 96.7%

CC(=O)N[C@@H]1[C@@H](O)[C@H](O)[C@@H](CO)O[C@@H]1O [N-Acetyl-D-glucosamine]
remaining activity at 1.25 µM ([1]; Well no.=6881): 100% | remaining activity at 3.75 µM ([2]; Well no.=6881): 95%

CC(=O)N[C@@H](CS)C(=O)O [N-Acetyl-L-Cysteine]
remaining activity at 1.25 µM ([1]; Well no.=4): 98.3% | remaining activity at 3.75 µM ([2]; Well no.=4): 97.6%

CC(=O)N[C@@H](CC(=O)O)C(=O)O [N-Acetyl-L-aspartic acid]
remaining activity at 1.25 µM ([1]; Well no.=6645): 98.3% | remaining activity at 1.25 µM ([1]; Well no.=7690): 101% | remaining activity at 3.75 µM ([2]; Well no.=6645): 98.5% | remaining activity at 3.75 µM ([2]; Well no.=7690): 96.5%

CC(=O)N[C@@H](CC(C)C)C(=O)O [N-Acetyl-L-leucine]
remaining activity at 1.25 µM ([1]; Well no.=7596): 97% | remaining activity at 3.75 µM ([2]; Well no.=7596): 98.8%

CC(=O)N[C@@H](Cc1ccc(O)cc1)C(=O)O [N-Acetyl-L-tyrosine]
remaining activity at 1.25 µM ([1]; Well no.=6677): 105% | remaining activity at 1.25 µM ([1]; Well no.=8704): 101% | remaining activity at 3.75 µM ([2]; Well no.=6677): 104% | remaining activity at 3.75 µM ([2]; Well no.=8704): 99.9%

CCCCC/C=C\C\C=C/C=C/C=C/[C@@H](SCC(NC(C)=O)C(=O)O)[C@@H](O)CCCC(=O)O (stereo partly drawn) [N-Acetyl-leukotriene E4]
remaining activity at 1.25 µM ([1]; Well no.=4435): 101% | remaining activity at 3.75 µM ([2]; Well no.=4435): 102%

CC(=O)NCCc1ccc(O)c(O)c1 [N-Acetyldopamine monohydrate]
remaining activity at 1.25 µM ([1]; Well no.=56): 98.3% | remaining activity at 3.75 µM ([2]; Well no.=56): 101%

CC(=O)NCC(=O)O [N-Acetylglycine]
remaining activity at 1.25 µM ([1]; Well no.=6779): 96.3% | remaining activity at 3.75 µM ([2]; Well no.=6779): 96%

CC(=O)N[C@H]1[C@H]([C@H](O)[C@H](O)CO)OC(O)(C(=O)O)C[C@@H]1O (stereo partly drawn) [N-Acetylneuraminic acid]
remaining activity at 1.25 µM ([1]; Well no.=6491): 92.4% | remaining activity at 3.75 µM ([2]; Well no.=6491): 94.5%

CC(=O)N[C@@H](CCCN)C(=O)O [N-Acetylornithine]
remaining activity at 1.25 µM ([1]; Well no.=7731): 102% | remaining activity at 1.25 µM ([1]; Well no.=8748): 99.4% | remaining activity at 3.75 µM ([2]; Well no.=7731): 104% | remaining activity at 3.75 µM ([2]; Well no.=8748): 98.7%

CCN(CC)CCNC(=O)c1ccc(NC(C)=O)cc1 [N-Acetylprocainamide hydrochloride]
remaining activity at 1.25 µM ([1]; Well no.=19): 104% | remaining activity at 3.75 µM ([2]; Well no.=19): 103%

CC(=O)NCCc1c[nH]c2ccccc12 [N-Acetyltryptamine]
remaining activity at 1.25 µM ([1]; Well no.=100): 97.2% | remaining activity at 3.75 µM ([2]; Well no.=100): 96.6%
